In patent publication US20060160865A1, “Pyridinyl carbamates” (Novo Nordisk A/S, priority 2003, published 2006) one finds activity data, which are given here for 21 compounds.

Structures are written as SMILES.

In this assay the target is T1, Hormone-sensitive lipase (HSL) (Homo sapiens, UniProt Q05469).
T1 construct: made in house
T1 sequence (Q05469 1-775 isoform Q05469-2): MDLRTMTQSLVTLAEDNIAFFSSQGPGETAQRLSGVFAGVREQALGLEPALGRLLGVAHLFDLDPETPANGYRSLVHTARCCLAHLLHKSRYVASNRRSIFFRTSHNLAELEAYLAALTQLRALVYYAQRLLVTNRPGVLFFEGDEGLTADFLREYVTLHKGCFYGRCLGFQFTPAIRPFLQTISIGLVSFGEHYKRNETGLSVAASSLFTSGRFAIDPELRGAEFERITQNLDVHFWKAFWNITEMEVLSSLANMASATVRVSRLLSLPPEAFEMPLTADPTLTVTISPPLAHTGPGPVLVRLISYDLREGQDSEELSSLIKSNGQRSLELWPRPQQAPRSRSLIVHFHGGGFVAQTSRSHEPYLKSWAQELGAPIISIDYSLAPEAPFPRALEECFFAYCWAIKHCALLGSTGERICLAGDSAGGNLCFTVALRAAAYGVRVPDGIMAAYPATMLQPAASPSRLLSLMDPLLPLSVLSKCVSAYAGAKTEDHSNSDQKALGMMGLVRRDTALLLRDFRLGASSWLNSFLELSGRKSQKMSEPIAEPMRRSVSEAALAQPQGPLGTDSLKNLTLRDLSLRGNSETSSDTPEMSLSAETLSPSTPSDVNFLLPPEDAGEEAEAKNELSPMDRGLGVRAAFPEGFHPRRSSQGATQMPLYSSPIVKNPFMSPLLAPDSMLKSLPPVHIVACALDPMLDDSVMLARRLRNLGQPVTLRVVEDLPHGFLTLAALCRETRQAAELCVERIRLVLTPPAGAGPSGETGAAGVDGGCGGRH
Put plainly: Assay 3190.1: percent inhibition of hormone sensitive lipase by compound at 10 μM (fluorochrome-labeled triacylglyceride substrate). It counts as biochemical. The settings on record: 10 μM sample concentration; % activity relative to non-inhibited sample (no compound); 30 min pre-incubation at 25° C., 120 min at 37° C.; read-out: Test 3190.1 HSL_FL % ACTIVITY
From the text:
Materials. The Hormone-sensitive lipase was provided by Dr. Cecilia Holm, from Lund University Sweden or produced and purified by Novo Nordisk (NN) using the reagents and protocols used by Dr. Holm. The substrates used are: ^3H-labeled triolein (TO) from Amersham, Buckinghamshire, U.K. cat No. TRA191; 5-20 Ci/mmol dissolved in toluene, triolein (Sigma, Cat. No. T-1740), fluorochrome-labeled triacylglyceride (cis-octadec-9-enoic acid 2-[12-(7-nitrobenzo[1,2,5]oxadiazol-4-ylamino)dodecanoyloxy]-1-cis-octadec-9-enoyloxymethyl-ethyl ester) prepared by Novo Nordisk (NN) by conventional methods, and 1,3-(di[^3H]-stearin), 2-(PEG-Biotin)glycerol prepared in collaboration with Amersham Pharmacia Biotech, UK and described in WO 01/073442. Phosphatidyl choline (PC) and phosphatidyl inositol (PI) are from Sigma (St Luis Mo. cat. Nos. P-3556 and P-5954 respectively). All other reagents are of commercial grade and obtained from various commercial sources.
3190.1: Assay for determination of percent inhibition of hormone sensitive lipase by compound at 10 μM sample concentration.
A lipid emulsion with fluorochrome-labeled triacylglyceride and phospholipid is used as substrate with a standard concentration of highly purified HSL (12 μg/mL initial concentration corresponding to 600 ng/mL final concentration). BSA is added as product acceptor. The transfer of the fluorochrome from the lipid phase to the water (BSA) phase changes the fluorescent properties of the fluorochrome. The changes can be monitored on a fluorimeter with an excitation wavelength of 450 nm and an emission wavelength of 545 nm.
Compound and HSL (20 μL compound, 10 μL enzyme and 70 μL PED-BSA buffer) is pre-incubated for 30 min at 25° C. before addition of substrate (100 μL). Amount of formed product is measured after 120 min incubation at 37° C.
Results are given as percent activity relative to a non-inhibited sample (no compound). 3190.2: Assay for determination of IC50 value for the inhibition of hormone sensitive lipase by compound. Standard concentrations of compound are 100 μM and 5-fold dilutions (initial concentration corresponding to 10 μM final concentration and 5-fold).
For the compound `COc1cccc(C(=O)Nc2ccc(OC(=O)N(C)c3ccccc3)nc2)c1` [Example 21, Methyl-phenyl-carbamic acid 5-(3-methoxy-benzoylamino)-pyridin-2-yl ester], the activity at 10 µM came out at 1%.
Next, `CN(C(=O)Oc1ccc(NCC(=O)OC(C)(C)C)cn1)c1ccccc1` [Example 2, [6-(Methyl-phenyl-carbamoyloxy)-pyridin-3-ylamino]-acetic acid tert-butyl ester]: 1%; `CN(C(=O)Oc1ccc(N2C(=O)CC(C)(C)CC2=O)cn1)c1ccc(CCO)cc1` [Example 77, [4-(2-Hydroxy-ethyl)-phenyl]-methyl-carbamic acid 4,4-dimethyl-2,6-dioxo-3,4,5,6-tetrahydro-2H-[1,3′]bipyridinyl-6′-yl ester]: 12%.
To `CN(C(=O)Oc1ccc(NC(=O)c2cccc(C(F)(F)F)c2F)cn1)c1ccccc1` [Example 28, Methyl-phenyl-carbamic acid 5-(2-fluoro-3-trifluoromethyl-benzoylamino)-pyridin-2-yl ester] belongs 1%; to `CN(C(=O)Oc1ccc(NC(=O)c2ccc(CN3CCCC3)cc2)cn1)c1ccccc1` [Example 47, Methyl-phenyl-carbamic acid 5-(4-pyrrolidin-1-ylmethyl-benzoylamino)-pyridin-2-yl ester], 7%; to `COc1ccccc1N(C)C(=O)Oc1ccc(N2C(=O)CC(C)(C)CC2=O)cn1` [Example 32, (2-Methoxy-phenyl)-methyl-carbamic acid 4,4-dimethyl-2,6-dioxo-3,4,5,6-tetrahydro-2H-[1,3′]bipyridinyl-6′-yl ester], 6%.
To `CC1CCN(Cc2ccc(C(=O)Nc3ccc(OC(=O)N(C)c4ccccc4)nc3)cc2)CC1` [Example 41, Methyl-phenyl-carbamic acid 5-[4-(4-methyl-piperidin-1-ylmethyl)-benzoylamino]-pyridin-2-yl ester] belongs 3%.
On to `CCCCNC(=S)Nc1ccc(OC(=O)N(C)c2ccccc2)nc1` [Example 16, Methyl-phenyl-carbamic acid 5-(3-butyl-thioureido)-pyridin-2-yl ester], for which the activity at 10 µM stood at 1%.
Next, `CN(C(=O)Oc1ccc(NC(=S)NCC(C)(C)C)cn1)c1ccccc1` [Example 12, Methyl-phenyl-carbamic acid 5-[3-(2,2-dimethyl-propyl)-thioureido]-pyridin-2-yl ester]: 2%; `COc1ccc(N(C)C(=O)Oc2ccc(N3C(=O)CC(C)(C)CC3=O)cn2)cc1` [Example 72, (4-Methoxy-phenyl)-methyl-carbamic acid 4,4-dimethyl-2,6-dioxo-3,4,5,6-tetrahydro-2H-[1,3′]bipyridinyl-6′-yl ester]: 2%; `CN(C(=O)Oc1ccc(NC(=O)NC(C)(C)C)cn1)c1ccccc1` [Example 35, Methyl-phenyl-carbamic acid 5-(3-tert-butyl-ureido)-pyridin-2-yl ester]: 8%.
In the case of `C[C@@H]1CN(Cc2ccc(C(=O)Nc3ccc(OC(=O)N(C)c4ccccc4)nc3)cc2)C[C@H](C)O1` [Example 52, cis-Methyl-phenyl-carbamic acid 5-[4-(2,6-dimethyl-morpholin-4-ylmethyl)-benzoylamino]-pyridin-2-yl ester], the activity at 10 µM is 4%.
To `CCC1NC(=S)N(c2ccc(OC(=O)N(C)c3ccccc3)nc2)C1=O` (stereo not drawn) [Example 8, Methyl-phenyl-carbamic acid 5-(4-ethyl-5-oxo-2-thioxo-imidazolidin-1-yl)-pyridin-2-yl ester] belongs 3%.
To `CC1CCCCN1Cc1ccc(C(=O)Nc2ccc(OC(=O)N(C)c3ccccc3)nc2)cc1` (stereo not drawn) [Example 43, Methyl-phenyl-carbamic acid 5-[4-(2-methyl-piperidin-1-ylmethyl)-benzoylamino]-pyridin-2-yl ester] belongs 7%.
To `CN(C)c1cccc(C(=O)Nc2ccc(OC(=O)N(C)c3ccccc3)nc2)c1` [Example 31, Methyl-phenyl-carbamic acid 5-(3-dimethylamino-benzoylamino)-pyridin-2-yl ester] belongs 3%.
Consider `CCN(CC)c1ccc(C(=O)Nc2ccc(OC(=O)N(C)c3ccccc3)nc2)cc1` [Example 58, Methyl-phenyl-carbamic acid 5-(4-diethylamino-benzoylamino)-pyridin-2-yl ester], for which the activity at 10 µM amounted to 11%.
To `CC1CCN(C(=S)Nc2ccc(OC(=O)N(C)c3ccccc3)nc2)CC1` [Example 63, Methyl-phenyl-carbamic acid 5-[(4-methyl-piperidine-1-carbothioyl)-amino]-pyridin-2-yl ester] belongs 2%; to `CN(C(=O)Oc1ccc(N2C(=O)CC(C)(C)CC2=O)cn1)c1ccc(Br)cc1` [Example 65, (4-Bromo-phenyl)-methyl-carbamic acid 4,4-dimethyl-2,6-dioxo-3,4,5,6-tetrahydro-2H-[1,3′]bipyridinyl-6′-yl ester], 0%; to `CN(C(=O)Oc1ccc(CCN2C(=O)CC(C)(C)CC2=O)cn1)c1ccccc1` [Example 1, Methyl-phenyl-carbamic acid 5-[2-(4,4-dimethyl-2,6-dioxo-piperidin-1-yl)-ethyl]-pyridin-2-yl ester], 0%.
On to `CN(C(=O)Oc1ccc(NC(=O)c2ccc(-n3ccnc3)cc2)cn1)c1ccccc1` [Example 57, Methyl-phenyl-carbamic acid 5-(4-imidazol-1-yl-benzoylamino)-pyridin-2-yl ester], for which the activity at 10 µM worked out at 17%.
For the compound `CN(C(=O)Oc1ccc(N2C(=O)CNC2=S)cn1)c1ccccc1` [Example 5, Methyl-phenyl-carbamic acid 5-(5-oxo-2-thioxo-imidazolidin-1-yl)-pyridin-2-yl ester], the activity at 10 µM amounted to 9%.
